Assay results reported in patent US7973075B2, “Kainate receptor-selective epimeric analogs of dysiherbaine” (priority 2007, dated 2011).

Columns and labels:
KA2 = target: T1, KA2 (Rattus norvegicus, UniProt Q63273); conditions: Tables 1-2; comparison values of neoDH and MSVIII-19 (Sanders et al., 2005); cited from earlier work
T1 construct: expressed in transfected cells; host or cells: HEK-293-T/17
T1 sequence (Q63273 15-979): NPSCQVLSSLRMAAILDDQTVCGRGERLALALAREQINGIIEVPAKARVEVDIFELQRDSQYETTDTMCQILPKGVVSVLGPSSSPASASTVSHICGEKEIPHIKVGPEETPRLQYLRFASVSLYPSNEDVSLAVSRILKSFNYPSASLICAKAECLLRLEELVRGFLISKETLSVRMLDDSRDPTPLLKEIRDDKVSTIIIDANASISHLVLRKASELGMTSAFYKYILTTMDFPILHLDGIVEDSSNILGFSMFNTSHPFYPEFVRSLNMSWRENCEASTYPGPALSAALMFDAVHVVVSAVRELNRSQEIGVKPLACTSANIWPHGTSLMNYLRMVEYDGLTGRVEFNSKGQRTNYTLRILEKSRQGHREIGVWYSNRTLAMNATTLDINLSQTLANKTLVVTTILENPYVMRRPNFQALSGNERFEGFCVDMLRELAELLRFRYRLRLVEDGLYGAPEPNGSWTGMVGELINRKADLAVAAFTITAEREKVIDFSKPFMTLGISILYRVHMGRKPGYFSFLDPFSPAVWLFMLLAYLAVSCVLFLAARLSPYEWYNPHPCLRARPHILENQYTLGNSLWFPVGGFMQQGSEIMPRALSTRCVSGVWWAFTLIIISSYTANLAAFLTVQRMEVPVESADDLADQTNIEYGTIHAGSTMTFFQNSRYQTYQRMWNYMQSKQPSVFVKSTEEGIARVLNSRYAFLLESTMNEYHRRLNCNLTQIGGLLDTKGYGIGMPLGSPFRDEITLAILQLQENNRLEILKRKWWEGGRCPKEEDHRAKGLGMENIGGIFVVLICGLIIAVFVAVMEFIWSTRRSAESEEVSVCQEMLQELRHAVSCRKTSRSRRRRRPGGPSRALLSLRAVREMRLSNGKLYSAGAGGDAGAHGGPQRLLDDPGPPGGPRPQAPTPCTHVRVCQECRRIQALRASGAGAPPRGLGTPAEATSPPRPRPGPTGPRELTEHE

GluR4(i) AMPA receptors = target: T2, GluR4(i) AMPA receptors (Rattus norvegicus, UniProt P19493); test: Whole-cell patch clamp recordings, transfected HEK-293-T/17 cells, Example 2; type: cell-based; conditions: 300 μM analog
T2 construct: expressed in transfected cells; host or cells: HEK-293-T/17
Description: Cell Culture and Electrophysiology. HEK-293-T/17 cells were maintained in Dulbecco's modified Eagle's medium (DMEM) supplemented with 100 μg/mL penicillin, 100 μg/mL streptomycin, and 10% heat inactivated fetal bovine serum. One day before transfection, HEK-T/17 cells were plated at low density on glass coverslips coated with 100 μg/ml poly-D-lysine and 100 μg/ml collagen. Cells were transfected with receptor cDNAs ([…]) in combination with enhanced green fluorescent protein (eGFP) cDNA for visualization of transfected cells. Transfections were carried out with Fugene6 (Roche Applied Science) according to the manufacturer's protocol and used 2-3 days following transfection. Internal solution consisted of 110 mM CsF, 30 mM CsCl, 4 mM NaCl, 0.5 mM CaCl2, 10 mM HEPES, and 5 mM EGTA, and was adjusted to pH=7.3 with CsOH. The external solution contained 150 mM NaCl, 2.8 mM KCI, 2 mM CaCl2, 1 mM MgCl2, and 10 mM HEPES, adjusted to pH=7.3 with NaOH. Patch electrodes from thick-walled borosilicate glass (Warner Instruments, Hamden, Conn.) were pulled to a final resistance of 1.5 to 2.5 MO after fire polishing. […] To determine the pre-desensitization IC50 of selected analogs, several control glutamate (10 mM) applications were followed by a 2.5 minute application of various concentrations of 8-deoxy-neoDH, 9-deoxy-neoDH, or MSVIII-19, after which the analogs were co-applied with glutamate. A similar protocol was followed to measure the recovery of glutamate-evoked currents, with the exception that the analogs were not co-applied with glutamate. Whole cell patch clamp recordings were carried out using an Axopatch 200B amplifier (Axon Instruments). Data were analyzed with Origin 7.5 (OriginLab Corp.), and Prism4 (GraphPad Software Inc.); inhibition-response curves were plotted and fit with a one-site competition curve constrained to fixed minima (0) and maxima (100).
The pharmacological activities of the C2/C4 epimers were determined in patch-clamp assays with GluR5-2a or GluR6a KARs as well as GluR4(i) AMPA receptors.
30 μM 2,4-epi-neoDH reduced glutamate-induced currents from GluR5-2a receptors by −70% while the same concentration reduced glutamate-induced currents from GluR6a receptors by −30% (FIG. 13A). […] We noted that the data derived from recording of the GluR5-2a receptor was poorly fit by the single component logistic curve, particularly at the lower concentrations. This inconsistency may arise from inter-subunit or inter-dimer cooperativity in the inhibitory activity or may be an apparent artifact resulting from run-down of the GluR5-2a receptor currents.

T2 sequence (P19493 22-902 isoform P19493-2 limits assumed): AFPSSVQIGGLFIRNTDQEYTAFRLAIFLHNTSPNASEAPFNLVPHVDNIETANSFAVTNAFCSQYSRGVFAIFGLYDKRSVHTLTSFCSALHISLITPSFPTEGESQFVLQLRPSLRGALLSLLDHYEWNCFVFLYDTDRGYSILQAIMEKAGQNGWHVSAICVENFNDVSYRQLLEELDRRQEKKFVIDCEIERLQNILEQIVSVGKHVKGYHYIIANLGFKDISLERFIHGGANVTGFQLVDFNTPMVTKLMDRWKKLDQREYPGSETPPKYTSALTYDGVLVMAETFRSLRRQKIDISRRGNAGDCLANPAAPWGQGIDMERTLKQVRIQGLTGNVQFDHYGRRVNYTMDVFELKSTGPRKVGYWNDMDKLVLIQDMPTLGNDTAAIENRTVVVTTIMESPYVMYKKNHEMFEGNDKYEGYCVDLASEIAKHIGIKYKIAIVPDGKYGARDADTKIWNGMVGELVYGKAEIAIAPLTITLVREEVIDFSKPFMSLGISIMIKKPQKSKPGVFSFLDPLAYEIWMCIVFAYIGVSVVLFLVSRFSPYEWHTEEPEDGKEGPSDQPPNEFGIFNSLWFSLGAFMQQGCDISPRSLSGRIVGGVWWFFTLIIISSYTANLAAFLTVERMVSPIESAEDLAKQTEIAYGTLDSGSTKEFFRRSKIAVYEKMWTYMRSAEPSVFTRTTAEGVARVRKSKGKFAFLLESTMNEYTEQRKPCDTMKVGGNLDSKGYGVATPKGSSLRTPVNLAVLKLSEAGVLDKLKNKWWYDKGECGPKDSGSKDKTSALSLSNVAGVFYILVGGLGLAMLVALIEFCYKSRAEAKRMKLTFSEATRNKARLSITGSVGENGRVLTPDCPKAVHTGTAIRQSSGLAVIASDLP

Compound	KA2 binding affinity (displacement of [3H]kainate) (KA2)	inhibition of currents from GluR4(i) receptors (GluR4(i) AMPA receptors)
N[C@@H](C[C@]1(C(=O)O)C[C@H]2OCCC[C@H]2O1)C(=O)O [MSVIII-19, 8,9-dideoxy-neoDH]	>100 µM	–
N[C@@H](C[C@@]1(C(=O)O)CC2OCC(O)C(O)C2O1)C(=O)O (single isomer, unassigned) [2,4-epi-neoDH, 2,4-epi-neodysiherbaine]	–	failed to inhibit
